These results are taken from article PMC7187199, “Investigation of a New Type I Baeyer–Villiger Monooxygenase from Amycolatopsis thermoflava Revealed High Thermodynamic but Limited Kinetic Stability” (Chembiochem, 2020).

In one data set the target is T1, TmCHMO (Thermocrispum municipale, UniProt A0A1L1QK39).
T1 sequence (A0A1L1QK39 1-541): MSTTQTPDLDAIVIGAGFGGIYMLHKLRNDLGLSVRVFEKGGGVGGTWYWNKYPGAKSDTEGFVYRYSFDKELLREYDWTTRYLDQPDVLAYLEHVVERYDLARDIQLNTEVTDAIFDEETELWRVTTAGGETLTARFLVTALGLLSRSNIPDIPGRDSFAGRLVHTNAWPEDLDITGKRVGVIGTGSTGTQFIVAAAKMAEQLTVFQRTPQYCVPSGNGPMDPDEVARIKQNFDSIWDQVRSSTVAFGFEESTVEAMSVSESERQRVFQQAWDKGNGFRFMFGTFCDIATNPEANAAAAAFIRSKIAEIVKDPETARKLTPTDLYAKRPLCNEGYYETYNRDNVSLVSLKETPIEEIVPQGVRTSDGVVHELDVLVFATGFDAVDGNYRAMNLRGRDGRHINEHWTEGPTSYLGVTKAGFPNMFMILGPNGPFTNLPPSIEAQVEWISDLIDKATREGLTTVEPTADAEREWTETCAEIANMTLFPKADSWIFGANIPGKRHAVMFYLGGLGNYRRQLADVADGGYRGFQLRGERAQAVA
In words: NADPH oxidation at […] nm. The settings on record: 0.5 mM cyclohexanone, 100 μM NADPH, 10 μM FAD, 50 mM Tris-HCl, 30 °C. The class given is biochemical.

For another data set, the target named is T2, CHMOAcineto (Acinetobacter johnsonii, UniProt P12015).
T2 construct: gene chnB
Nature of the data set: NADPH oxidation at […] nm. It is filed as biochemical. The conditions noted are these: 100 μM NADPH, 50 mM Tris-HCl, 30 °C.

For a further data set, the system named is O=C1CCCCC1. In words: purified protein. The conditions noted are these: 100 μM NADPH, 50 mM Tris-HCl, 30 °C.

What is called Km is the concentration of substrate that gives half-maximal velocity. One may read the kcat as the maximal rate divided by the concentration of active sites.

T2 sequence (P12015 2-543): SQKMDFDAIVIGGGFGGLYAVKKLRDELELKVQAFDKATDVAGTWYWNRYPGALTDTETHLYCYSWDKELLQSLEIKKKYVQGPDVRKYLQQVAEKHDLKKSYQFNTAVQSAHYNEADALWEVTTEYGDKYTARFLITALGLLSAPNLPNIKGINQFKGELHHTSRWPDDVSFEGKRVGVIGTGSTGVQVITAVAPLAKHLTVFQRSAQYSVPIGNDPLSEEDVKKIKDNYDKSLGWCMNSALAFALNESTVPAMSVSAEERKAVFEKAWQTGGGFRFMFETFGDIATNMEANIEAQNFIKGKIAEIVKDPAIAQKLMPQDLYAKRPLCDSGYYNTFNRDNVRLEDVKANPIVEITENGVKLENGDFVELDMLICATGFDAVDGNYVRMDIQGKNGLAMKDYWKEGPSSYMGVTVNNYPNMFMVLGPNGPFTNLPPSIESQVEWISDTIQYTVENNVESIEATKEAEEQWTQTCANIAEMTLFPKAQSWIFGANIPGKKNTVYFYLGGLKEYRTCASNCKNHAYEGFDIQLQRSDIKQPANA

For the molecule `O=C1CCCCC1` [cyclohexanone], at TmCHMO, the “NADPH oxidation at 340 nm” value is listed as “The activity was comparable to that of TmCHMO”. Moreover, on CHMOAcineto, the Km was 6.74 ± 2 µM.

Regarding BVMOFlava (Amycolatopsis thermoflava), in the data set with O=C1CCCCC1, the Km was 0.53 ± 0.1 µM and the kcat was found to be 1.5 ± 0.1 s⁻¹.
